Values after ≈ are worked out from the molar mass of the structure shown. Read-outs that look alike come from different tables or passages of the source.
What was measured:
[1] = Equilibrium moisture content of solvent; format: physicochemical; settings: Table 1
Excerpt: The term “moisture content” as used herein refers to the equilibrium saturation of water contained by the solvent, whether or not product alcohol, e.g., isobutanol is present. At times the term “equilibrium” is used in conjunction with “moisture content” to indicate “moisture content” is related to a particular set of conditions, e.g., temperature, pressure, and so on. As will, be apparent, moisture content commonly refers to a maximum amount of water that can be dissolve by the solvent/solvent mixture given a certain set of conditions.
While the solvent mixture or portions thereof can be immiscible in water, e.g., on the order of 10^−7, in some instances one or more of the solvents can be comparatively weakly miscible in water. It is also to be appreciated, that water can be miscible (e.g., somewhat miscible) in the solvent mixture and/or miscible in one or more solvents included in the solvent mixture. COFA in some examples can absorb moisture, or water, such that the COFA is “wet”. A solvent's tendency to absorb moisture, e.g., act as a solvent, in some examples, can differ from that solvent's ability to solvate in water, e.g., its hydrophobicity. A table of various solvents and their respective characteristics is reproduced directly below.

[2] = system: genetically modified isobutanologen yeast strain; assay: Biocompatibility shake flask, OD and glucose (Examples 2, 3); format: cell-based; settings: for Glucose / OD: Example 3, With Solvent
[3] = system: butanologen; assay: Biocompatibility with a butanologen (discussion of examples); format: cell-based
[4] = Isobutanol partitioning between solvent and water (Kd, butanol partition coefficient)
[5] = system: genetically modified isobutanolagen yeast strain (PNY2141); format: cell-based; settings: for Glucose, gpl Grams per Liter / OD: With solvent
[6] = system: ethanol red yeast strain; assay: Biocompatibility shake flask, glucose (Example 12); format: cell-based
[7] = system: genetically modified isobutanolagen yeast strain PNY2310; format: cell-based; settings: for Glucose: Example 9, With Solvent
[8] = system: Sacchromyces Cerevisiae; settings: in vitro; Bennis et al. 2004; cited from earlier work
[9] = system: naturally occurring ethanologen yeast strain; assay: Biocompatibility shake flask, glucose uptake (Example 1A); format: cell-based; settings: 32° C.
[10] = 10 ml aqueous 6 wt % isobutanol + 1 ml solvent
[11] = 10 ml aqueous 6 wt % isobutanol + 1 ml solvent, gas chromatography
[12] = aqueous 2.0 wt % isobutanol, equal mass of solvent
[13] = aqueous 2.0 wt % isobutanol, equal mass of solvent (3 g/3 g or 5 g/5 g), HPLC
[14] = aqueous 2.0 wt % isobutanol, half its mass of solvent
[15] = aqueous 2.0 wt % isobutanol, half its mass of solvent (5 g/2.5 g or 1 g/0.5 g), HPLC
[16] = time 0 hr, 10 ml solvent on 20 ml medium, 32° C.

CC(CC(C)(C)C)CC(C)(C)C [isododecane, 2,2,4,6,6-pentamethylheptane]
Moisture Content (wt %) [1]: <0.01 wt % | growth (glucose uptake and OD) versus flask without solvent ([2]; Example 3): No significant difference in growth | Glucose ([2]; time 0 hr): 32 g/L | OD ([2]; time 0 hr, 32 g/liter glucose, 10 ml solvent on 20 ml medium, 32° C.): 0.5 | Glucose ([2]; time 7 hr): 32 g/L | OD ([2]; time 7 hr): 0.9 | Glucose ([2]; time 13 hr): 25 g/L | OD ([2]; time 13 hr): 1.6 | Glucose ([2]; time 23 hr): 5 g/L | OD ([2]; time 23 hr): 4.9 | Glucose ([2]; time 29 hr): 0.1 g/L | OD ([2]; time 29 hr): 5.0 | biocompatibility with a butanologen (found in testing) [3]: biocompatible with a butanologen | isobutanol in aqueous layer [4, 10]: 1.39 mole % | isobutanol in organic layer [4, 10]: 17.24 mole % | mass partitioning coefficient [4, 10]: 1.525 | molar partitioning coefficient [4, 10]: 12.4 | isobutanol in aqueous layer [4, 11]: 5.45 wt % | isobutanol in organic layer [4, 11]: 8.31 wt % | isobutanol in organic layer, calculated by mass balance [4, 12]: 0.40 wt % | mass partitioning coefficient [4, 12]: 0.25 | isobutanol in aqueous layer [4, 13]: 1.60 wt %

CC(C)c1cccc(C(C)C)c1 [1,3-diisopropylbenzene]
consumption of glucose in presence of solvent ([5]; Example 6A): No significant consumption of glucose | Glucose (grams per liter, gpl) ([5]; Example 6A, time 0 hours, 1.0 OD PNY2141, 10 ml solvent on 20 ml medium, 32° C.): 30 gpl | Glucose (grams per liter, gpl) ([5]; Example 6A, time 6 hours): 30 gpl | Glucose (grams per liter, gpl) ([5]; Example 6A, time 11 hours): 30 gpl | Glucose (grams per liter, gpl) ([5]; Example 6A, time 16 hours): 28 gpl | Glucose (grams per liter, gpl) ([5]; Example 6A, time 24 hours): 29 gpl | biocompatibility with a butanologen (found in testing) [3]: not to be biocompatible

CCCCC(CC)COP(=O)(OCC(CC)CCCC)OCC(CC)CCCC (stereo not drawn) [tris(2-ethylhexyl) phosphate]
inhibition in glucose consumption ([6]; Example 12): No significant inhibition in glucose consumption | Glucose (grams per liter, gpl) ([6]; time 0 hours, 1.1 OD, 10 ml solvent on 20 ml medium, 32° C.): 17 gpl | Glucose (grams per liter, gpl) ([6]; time 5 hours): 0 gpl | Glucose (grams per liter, gpl) ([6]; time […]): 11.5 gpl

CCCCN(CCCC)C(=O)N(CCCC)CCCC [Tetrabutylurea, tetrabutylurea]
Moisture Content (wt %) [1]: 0.9 wt % | glucose concentration versus flask without solvent ([7]; Example 9): No significant difference | Glucose ([7]; time 0 hr, 0.5 OD PNY2310, 10 ml solvent on 20 ml medium, 32° C.): 28 g/L | Glucose ([7]; time 4 hr): 25 g/L | Glucose ([7]; time 8 hr): 14 g/L | Glucose ([7]; time 12 hr): 0 g/L | biocompatibility with a butanologen (found in testing) [3]: biocompatible with a butanologen | isobutanol in organic layer, calculated by mass balance [4, 14]: 3.06 wt % | mass partitioning coefficient [4, 14]: 7.35 | isobutanol in aqueous layer [4, 15]: 0.417 wt %

CCCCC(CC)CO (stereo not drawn) [2-ethylhexanol]
Moisture Content (wt %) [1]: 2 wt %

CC(C)CC(C)CC(O)CC(C)C (stereo not drawn) [Isododecanol]
Moisture Content (wt %) [1]: 0.2 wt % | isobutanol in organic layer, calculated by mass balance [4, 14]: 2.87 wt % | mass partitioning coefficient [4, 14]: 5.42 | isobutanol in aqueous layer [4, 15]: 0.53 wt %

CC(CC(C)(C)C)CC(C)(C)CC(C)(C)C (stereo not drawn) [Isohexadecane, 2,2,4,4,6,8,8-heptamethylnonane]
Moisture Content (wt %) [1]: <0.01 wt %

Cc1ccc(C(C)C)c(O)c1 [thymol]
MFC (minimum fungal concentration) [8]: 1800 µM (≈ 270 µg/mL) | MIC, minimum inhibitory concentration [8]: 1500 µM (≈ 225 µg/mL)

CCN(CC)C(=O)c1cccc(C)c1 [DEET, diethyl m-toluamide]
isobutanol in organic layer, calculated by mass balance [4, 14]: 3.17 wt % | mass partitioning coefficient [4, 14]: 9.2 | isobutanol in aqueous layer [4, 15]: 0.34 wt %

Cc1ccc(C(C)C)cc1O [Carvacrol, carvacrol]
Moisture Content (wt %) [1]: 2 wt % | isobutanol in organic layer, calculated by mass balance [4, 14]: 3.42 wt % | mass partitioning coefficient [4, 14]: 15.5 | isobutanol in aqueous layer [4, 15]: 0.22 wt %

triisobutylene
glucose uptake versus flask without solvent ([9]; 4 hours): No significant difference in glucose uptake | glucose in aqueous phase ([9]; after 4 hours, start 21 g/liter glucose, 0.5 OD, 10 ml solvent on 20 ml medium): less than 0.1 g/liter | growth (OD and glucose) versus flask without solvent ([5]; Example 1B, PNY2141, 32° C.): Some impedance to growth | Glucose, gpl Grams per Liter [5, 16]: 28 gpl | OD [5, 16]: 0.5 | Glucose, gpl Grams per Liter ([5]; time 6 hr): 27 gpl | OD ([5]; time 6 hr): 0.6 | Glucose, gpl Grams per Liter ([5]; time 10 hr): 26 gpl | OD ([5]; time 10 hr): 0.8 | Glucose, gpl Grams per Liter ([5]; time 19 hr): 22 gpl | OD ([5]; time 19 hr): 1.6 | Glucose, gpl Grams per Liter ([5]; time 23 hr): 21 gpl | OD ([5]; time 23 hr): 2.1 | Glucose, gpl Grams per Liter ([5]; time 30 hr): 14 gpl | OD ([5]; time 30 hr): 2.8 | Glucose, gpl Grams per Liter ([5]; time 35 hr): 10 gpl | OD ([5]; time 35 hr): 3.4 | isobutanol in aqueous layer [4, 10]: 1.33 mole % | isobutanol in organic layer [4, 10]: 18.39 mole % | mass partitioning coefficient [4, 10]: 1.71 | molar partitioning coefficient [4, 10]: 13.8 | isobutanol in aqueous layer [4, 11]: 5.28 wt % | isobutanol in organic layer [4, 11]: 9.03 wt % | isobutanol in organic layer, calculated by mass balance [4, 12]: 0.47 wt % | mass partitioning coefficient [4, 12]: 0.31 | isobutanol in aqueous layer [4, 13]: 1.53 wt %

Reference: patent US9682908B2, “Method for producing butanol using extractive fermentation” (BUTAMAX ADVANCED BIOFUELS LLC, priority 2013, dated 2017)
